For test [1], the species on record is Canis familiaris. In words: Ratio of the CIAUC value to that of nitroglycerin (NTG ratio). The format is functional, Canis lupus familiaris.
Test [2] relates to Canis familiaris. In words: Collateral index in anesthetized dog at the dose of 0.03 mg/kg, i.v. after 60 minutes of administration. The class given is functional, Canis lupus familiaris. The conditions noted are these: route intravenous.
Test [3] relates to Canis familiaris. In words: Maximum collateral index in anesthetized dog at the dose of 0.03 mg/kg, i.v. The class given is functional, Canis lupus familiaris. The conditions noted are these: route intravenous.
The subject of test [4] is Canis familiaris. In words: Maximum […] was measured in anesthetized dog as percent at the dose of 0.03 mg/kg, i.v. The format is functional, Canis lupus familiaris. The settings on record: route intravenous.
Test [5] has as its system Canis familiaris. Description: Collateral index in anesthetized dog at the dose of 0.01 mg/kg, i.v. after 60 minutes of administration. The conditions noted are these: route intravenous. The format is functional, Canis lupus familiaris.
For test [6], the system named is Canis familiaris. Description: Maximum […] was measured in anesthetized dog as percent at the dose of 0.01 mg/kg, i.v. The class given is functional, Canis lupus familiaris. The conditions noted are these: route intravenous.
The test system of test [7] is Canis familiaris. Description: Maximum collateral index in anesthetized dog at the dose of 0.01 mg/kg, i.v. The format is functional, Canis lupus familiaris. The conditions noted are these: route intravenous.
A short description of test [8]: Nitroglycerin ratio to that was measured. The format is functional.

SMILES strings stand for the structures.

Take `O=C1NC(C(=O)NCCO[N+](=O)[O-])C(c2ccccc2)S1` (centres undefined): the NG ratio in the test listed under Canis familiaris [1] is recorded as 1. Further, the Collateral index with Canis familiaris [2] turned out to be 9. In addition, the Max collateral index in the test on Canis familiaris [3] is given as 18. Also, in the test with Canis familiaris [4], the Max hypotension is given as -6%.
In the case of `CC(=O)N[C@@H](CSC(C)=O)C(=O)NCCO[N+](=O)[O-]`, in the test filed under Canis familiaris [1], the NG ratio was determined as 2. In addition, the Collateral index with Canis familiaris [5] amounted to 6. The Max hypotension in the test with Canis familiaris [6] is recorded as -44%. Moreover, in the test on Canis familiaris [7], the Max collateral index worked out at 52.
The corresponding values for `O=C1N[C@H](C(=O)NCCO[N+](=O)[O-])CS1` are 1.9, 16, -8% and 23.
`C[C@H](CO[N+](=O)[O-])NC(=O)[C@@H]1CSC(=O)N1`: the NG ratio in the test listed under Canis familiaris [1] is 0.9. The same compound had a Collateral index with Canis familiaris [2] of 12. In addition, in the test on Canis familiaris [3], the Max collateral index was 12. In addition, the Max hypotension in the test with Canis familiaris [4] is -4%.
Take `C[C@H](CO[N+](=O)[O-])NC(=O)[C@H]1CSC(=O)N1`: in the test listed under Canis familiaris [1], the NG ratio is 0.4. In the test on Canis familiaris [2], this compound showed a Collateral index of 5. The Max collateral index in the test on Canis familiaris [3] stood at 6. Moreover, the Max hypotension in the test with Canis familiaris [4] is on record as -3%.
In the case of `O=C1NC(C(=O)NCCO[N+](=O)[O-])C(c2cccnc2)S1` (centres undefined), in the test with Canis familiaris [5], the Collateral index was 0. Further, the Max hypotension with Canis familiaris [6] was -4%. In addition, the NG ratio in test [8] is 0.1. For the same compound, in the test on Canis familiaris [7], the Max collateral index is 2.
In the case of `C[C@@H](CO[N+](=O)[O-])NC(=O)[C@@H]1CSC(=O)N1`, the NG ratio in the test filed under Canis familiaris [1] was determined as 1.1. The compound further showed a Collateral index with Canis familiaris [2] of 15. Further, the Max collateral index in the test with Canis familiaris [3] stood at 16. Also, in the test on Canis familiaris [4], the Max hypotension is on record as -5%.
Taken in the same sequence, the figures for `O=C1N[C@@H](C(=O)NCCO[N+](=O)[O-])CS1` were 0.8, 11, 14 and -8%.
Regarding `CC(C)C(=O)N[C@@H](CSC(=O)C(C)C)C(=O)NCCO[N+](=O)[O-]`, in the test listed under Canis familiaris [1], the NG ratio amounted to 1.5. The compound further had a Collateral index in the test on Canis familiaris [5] of 9. The Max hypotension in the test on Canis familiaris [6] is on record as -14%. Also, the Max collateral index in the test with Canis familiaris [7] is given as 25.
Take `O=[N+]([O-])OCC(CO[N+](=O)[O-])O[N+](=O)[O-]` [NITROGLYCERIN]: in the test listed under Canis familiaris [1], the NG ratio stood at 1. Also, in the test with Canis familiaris [2], the Collateral index was determined as 4. Besides, the Max collateral index with Canis familiaris [3] worked out at 33. Besides, the Max hypotension in the test on Canis familiaris [4] is listed as -55%.
Take `CC(=O)N[C@@H](CSC(=O)C(C)(C)C)C(=O)NCCO[N+](=O)[O-]`: the NG ratio in the test filed under Canis familiaris [1] turned out to be 2.5. The Collateral index in the test with Canis familiaris [5] amounted to 8. In addition, the Max hypotension in the test with Canis familiaris [6] is recorded as -23%. Also, in the test with Canis familiaris [7], the Max collateral index turned out to be 45.
For the compound `CCCC[C@@H](CO[N+](=O)[O-])NC(=O)[C@@H]1CSC(=O)N1`, the NG ratio in the test filed under Canis familiaris [1] is given as 1.6. In the test with Canis familiaris [2], this compound showed a Collateral index of 17. The compound further had a Max collateral index with Canis familiaris [3] of 21. In addition, the Max hypotension in the test with Canis familiaris [4] is listed as -4%.
Taken in the same sequence, the figures for `O=C1N[C@H](C(=O)NCCCO[N+](=O)[O-])CS1` were 0.1, 6, 4 and 0%.
`CCOC(=O)SC[C@H](NC(C)=O)C(=O)NCCO[N+](=O)[O-]`: in the test listed under Canis familiaris [1], the NG ratio is 2.4. The same compound displayed a Collateral index with Canis familiaris [5] of 16. In addition, in the test on Canis familiaris [6], the Max hypotension is given as -18%. The same compound registered a Max collateral index in the test on Canis familiaris [7] of 39.
Taken in the same sequence, the figures for `C[C@@H]1SC(=O)N[C@@H]1C(=O)NCCO[N+](=O)[O-]` were 0.5, 4, -2% and 9.
Taken in the same sequence, the figures for `O=C(N[C@@H](CS)C(=O)NCCO[N+](=O)[O-])c1cccnc1` were 0, 0, -3% and 2.
The corresponding values for `CC(=O)N[C@@H](CSC(=O)c1cccnc1)C(=O)NCCO[N+](=O)[O-]` are 1.1, 9, -24% and 20.
As to `CC(=O)N[C@@H](CSC(=O)OCC(C)C)C(=O)NCCO[N+](=O)[O-]`, the NG ratio in the test filed under Canis familiaris [1] is listed as 1.3. In the test on Canis familiaris [5], the Collateral index amounted to 6. Moreover, the Max hypotension in the test on Canis familiaris [6] is recorded as -12%. This compound also gave a Max collateral index in the test on Canis familiaris [7] of 25.
Taken in the same sequence, the figures for `O=C1N[C@H](C(=O)NCCCCO[N+](=O)[O-])CS1` were 0, 0, 0% and 2.
`O=C1NC(C(=O)NCCO[N+](=O)[O-])C(c2cccc3ccccc23)S1` (centres undefined) showed a Collateral index in the test with Canis familiaris [5] of 9. Besides, the Max hypotension in the test on Canis familiaris [6] is recorded as -2%. The NG ratio in test [8] was found to be 0.5. In addition, in the test with Canis familiaris [7], the Max collateral index is reported as 9.
As for `CC1(C)SC(=O)N[C@@H]1C(=O)NCCO[N+](=O)[O-]`, in the test listed under Canis familiaris [1], the NG ratio is 0.6. Also, in the test on Canis familiaris [2], the Collateral index stood at 8. In addition, the Max collateral index with Canis familiaris [3] turned out to be 9. Further, the Max hypotension with Canis familiaris [4] is recorded as -2%.
Taken in the same sequence, the figures for `O=C1NC(C(=O)NCCO[N+](=O)[O-])C(c2ccco2)S1` (centres undefined) were 0.4, 3, 6 and -3%.
Taken in the same sequence, the figures for `CCC[C@@H](CO[N+](=O)[O-])NC(=O)[C@@H]1CSC(=O)N1` were 1.3, 17, 18 and -7%.
For `CC(=O)N[C@@H](CS)C(=O)NCCO[N+](=O)[O-]`, the NG ratio in the test filed under Canis familiaris [1] is 1.9. This compound had a Collateral index in the test with Canis familiaris [5] of 9. In addition, in the test on Canis familiaris [6], the Max hypotension is -52%. This compound also registered a Max collateral index in the test with Canis familiaris [7] of 39.
`CC[C@@H](CO[N+](=O)[O-])NC(=O)[C@@H]1CSC(=O)N1`: in the test filed under Canis familiaris [1], the NG ratio is given as 0.5. Moreover, in the test on Canis familiaris [2], the Collateral index came out at 7. The same compound gave a Max collateral index in the test on Canis familiaris [3] of 7. In the test with Canis familiaris [4], the Max hypotension is -1%.
For `O=C1NC(C(=O)NCCO[N+](=O)[O-])C(c2cccs2)S1` (centres undefined), in the test listed under Canis familiaris [1], the NG ratio is recorded as 0.5. The Collateral index in the test on Canis familiaris [5] was found to be 3. For the same compound, the Max hypotension in the test on Canis familiaris [6] turned out to be 0%. The compound also gave a Max collateral index in the test on Canis familiaris [7] of 8.
The corresponding values for `CC(CNC(=O)[C@@H]1CSC(=O)N1)O[N+](=O)[O-]` (some centres undefined) are 0, 0, 0% and 0.
Taken in the same sequence, the figures for `O=C1NC(C(=O)NCCO[N+](=O)[O-])C(Cc2ccccc2)S1` (centres undefined) were 1, 7, -3% and 12.
Taken in the same sequence, the figures for `CC(=O)N[C@@H](CSC(=O)OC(C)(C)C)C(=O)NCCO[N+](=O)[O-]` were 0.8, 11, -8% and 21.
For `C[C@@H](CO[N+](=O)[O-])NC(=O)[C@H]1CSC(=O)N1`, the NG ratio in the test listed under Canis familiaris [1] turned out to be 0.3. Further, the Collateral index in the test on Canis familiaris [2] is 3. The Max collateral index with Canis familiaris [3] was determined as 5. Moreover, the Max hypotension in the test on Canis familiaris [4] is listed as -1%.
Take `CC(=O)N[C@@H](CSC(=O)c1ccccc1)C(=O)NCCO[N+](=O)[O-]`: in the test filed under Canis familiaris [1], the NG ratio was determined as 2.1. This compound had a Collateral index in the test on Canis familiaris [5] of 5. The Max hypotension with Canis familiaris [6] is -28%. The compound also yielded a Max collateral index in the test with Canis familiaris [7] of 49.

(Values after ChEMBL document CHEMBL1136426, “Synthesis and collateral dilator activity of nitroxyalkylamides having direct or latent sulfhydryl moieties” (2003).)
